Key:
C57B16/J mice = experiment: Intraperitoneal Chemerin15-mouse alone (no zymosan): peritoneal cell recruitment and TNFα; assay type: in vivo; conditions: 0.32 ng/kg i.p., 4 h
Protocol: Male C57B16/J mice (8-12 weeks) were injected intra-peritoneally with 0.5 ml PBS or 0.5 ml Chemerin15-mouse (0.32 ng/kg). After 4 hours three animals per treatment group were sacrificed and peritoneal cavities washed with 5 ml PBS-3 mM EDTA. Total cell counts were obtained using Trypan blue exclusion test. For determination of cellular composition (Neutrophils vs mononuclear phagocytes), cells were blocked with 2.4G2 anti-FcgRII/III mAB for 5 mins and stained with PE-conjugated anti-mouse Ly-6G and FITC-conjugated anti-mouse 7/4 mAB for 10 mins. Cells were fixed in 1% formaldehyde prior to FACS analysis with CellQuest software. Gates were constructed around two populations, the neutrophils (N; 7/4^high, Ly-6G^high) and inflammatory monocytes (Mo; 7/4^high, Ly-6G^low). C15 refer to Chemerin15-mouse. p<0.01 ** relative to PBS-treated. Ns refers to no statistically significant difference p>0.05.

[1] = tested on: Murine peritoneal macrophages (PMΦ); experiment: Macrophage cytokine mRNA levels by qRT-PCR (IL-10, TGFβ), normalized to HPRT; assay type: cell-based, mouse; conditions: chemerin
Protocol: FIGS. 1A-F—FIGS. 1A and 1B illustrate that Chemerin140 suppresses production of inflammatory mediators by macrophages in a proteolysis dependent fashion. Supernatants from macrophages or activated macrophages (treated with 100 ng/ml LPS and 20 ng/ml interferon gamma were assayed for cytokine expression using Luminex and ELISA assays. Cells were incubated in the presence or absence of recombinant murine chemerin or dexamethasone at the indicated doses and in the absence or presence of the protease inhibitor leupeptin ([…]). FIG. 1C—Macrophage cytokine mRNA levels were quantitated by qRT-PCR (IL-10, TGFβ) and normalized to HPRT. FIG. 1D—PMΦ were pre-treated with chemerin (0.1-1 pM)±pertussis toxin (PTX; 200 ng/ml) prior to LPS/IFNγ-challenge. FIG. 1E—PMΦ were pre-treated with chemerin (1 pM) for 1 h±PTX and then stimulated with LPS/IFNγ for 4 h, 8 h or 15 h. ***, p<0.001; **, p<0.01; *, p<0.05 relative to LPS/IFNγ-treated samples. ###, p<0.001; ##, p<0.01; #, p<0.05 relative to chemerin-treated samples. […]
Total RNA was extracted using Qiagen RNeasy kits, reverse transcribed and subjected to qRT-PCR using the Sybr-Green method. Data was analysed using the 2-ΔΔCT method (Livak, K. J. & Schmittgen T. D. (2001), Methods 25:402-408).

## AGEDPHGYFLPGQFA (listed as Mus sp.) [C15]
C57B16/J mice
  Monocyte or neutrophil migration after peptide alone (FIG. 9): does not cause monocyte or neutrophil migration
  Peritoneal TNFα after peptide alone (FIG. 9): significant reduction in TNFα

B1: Chemerin: 140 amino acid mouse Chemerin protein of Sequence ID no: 34 (protein, listed as Mus sp.)
chain: TVGTEPELSETQRRSLQVALEEFHKHPPVQLAFQEIGVDRAEEVLFSAGTFVRLEFKLQQTNCPKKDWKKPECTIKPNGRRRKCLACIKMDPKGKILGRIVHCPILKQGPQDPQELQCIKIAQAGEDPHGYFLPGQFAFS
[1]
  Induction of IL-10 mRNA expression (FIG. 1C): 89%
  Induction of TGFβ mRNA expression (FIG. 1C): 54%

Reference: US8906865B2, “Treatment of inflammation and/or endotoxic shock” (ISIS Innovation Limited, priority 2007, dated 2014)
